Earlier results as cited in patent US20250151766A1, “SWEETENED COMPOSITION AND PREPARATION METHOD AND USE THEREOF” (GUILIN LAYN NATURAL INGREDIENTS CORP., priority 2022, published 2025).

Conditions: general statement in the description

For `O=C(CO)[C@@H](O)[C@H](O)[C@H](O)CO` [fructose], the sweetness is given as 1.5 ×.
